From patent US11622951B2, “Alpha-aminoadipate for treatment of vision loss and restoring sight” (The Schepens Eye Research Institute, Inc., priority 2013, dated 2023)

Columns and labels:
Müller glia = test: Electron microscopy count of Müller cell nuclei in retinal sections; type: in vivo, mouse; conditions: 3 days after subretinal injection 1 μg/μl, vs saline-injected group
Method: Mice were sacrificed 3 days after receiving the injection of α-AA (1 μg/μl) or saline as controls by injection of overdose of ketamine/xylazine followed by cervical dislocation, and the eyeballs were dissected, fixed with Karnovsky's fixative (pH 7.4) for 24 h. The quadrants of the eyes that received subretinal injection were dissected and embedded in Epon-Araldite. Semi-thin sections (1-2 μm) were stained with phenylenediamine phase staining. The sections were examined and photographed with a transmission electron microscope (EM410; Philips; Eindhoven, The Netherlands). Ten randomly selected retinal sections of each eye were photographed at 1900× magnification, and all Müller glial nuclei in the photomicrograph were counted.
Retinal sections were examined under electron microscopy, in which Müller glia were identified by their characteristic angular nuclei, dense chromatin and dark perinuclear cytoplasm (FIG. 1e-h). […] This was also confirmed by immunolabeling for specific markers of retinal neurons, including photoreceptors (recoverin) and amacrine cells (syntaxin) (FIG. 2).

[1] = tested on: cone photoreceptor function; test: Flicker ERG under cone-isolation conditions in Rho-/- mice; type: in vivo, mouse; conditions: Rho-/- mice injected subretinally at 6 weeks old, 4 weeks later, vs saline contralateral eye
Method: Mice carrying rhodopsin deficiency (Rho^−/−) were used to determine if injection of alpha-aminoadipate (αAA) is sufficient to induce neuroregeneration from endogenous retinal progenitors, e.g., Muller cells, leading to preservation and restoration of photoreceptor cell function. Light-evoked photoreceptor responses and retinal functions in Rho^−/− mice that received αAA or saline injection were assessed using ERGS and whole cell-attached patch clamp.
To determine if αAA induces functional neuroregeneration in Rho^−/− mice, αAA was injected subretinally into the left eyes of 6 week-old Rho^−/− mice, while their contralateral eyes were injected with saline and served as controls. After a 4 week survival period to allow regeneration of new photoreceptors, mouse ERG was measured in both eyes and then performed immunohistochemistry to identify photoreceptor cells. Rho^−/− mice lack the rod photoreceptor cell component or ERG a-wave. As cones consist of ˜3% of photoreceptors in mice, it is difficult to assess cone action a-wave; therefore, flicker ERG photometry under cone-isolation conditions was used to measure cone functions. […]

Structure (SMILES): NC(CCCC(=O)O)C(=O)O (stereo not drawn) [α-AA, alpha-aminoadipate]
- reduction in counts of Müller cell nuclei (Müller glia): 30%
- ERG b-wave (flicker ERG) [1]: sizable b-wave
